# Measurements: US9226902B2, “Stabilized transdermal drug delivery system” (Mylan Technologies Inc., priority 2008, dated 2016)
# Assay: Glass transition temperature (DSC)
# Format: physicochemical
# Conditions: amorphous form
# Procedure: The glass transition temperature of undispersed amorphous scopolamine is about 10° C.
smiles,measurement,value
"CN1[C@@H]2C[C@@H](OC(=O)[C@H](CO)c3ccccc3)C[C@H]1[C@@H]1O[C@@H]12 [undispersed amorphous scopolamine, scopolamine]",glass transition temperature (Tg),about 10 °C
